# Measured values from publication PMC7948503, “Optimization of a peptide ligand for the adhesion GPCR ADGRG2 provides a potent tool to explore receptor biology” (The Journal of Biological Chemistry, 2020).
# Non-standard residues stand in square brackets, D forms with d. Residues, ends and D or L forms follow the SMILES beside them. *: point of attachment. FITC = O=C1OC2(c3ccc(O)cc3Oc3cc(O)ccc32)c2ccc(NC(=S)*)cc21; Phe(4-Me) = Cc1ccc(C[C@H](N)C(=O)O)cc1
# Assays:
# Assay in all cases: BRET binding of FITC-VPM-p15
# [1] = target: T1, Rluc-ADGRG2-ΔGPS-β M839A (Mus musculus, UniProt Q8CJ12, M853A); conditions: mutant M839A
# T1 construct: expressed in transfected cells; host or cells: HEK293
# T1 sequence (Q8CJ12 614-1009 M853A): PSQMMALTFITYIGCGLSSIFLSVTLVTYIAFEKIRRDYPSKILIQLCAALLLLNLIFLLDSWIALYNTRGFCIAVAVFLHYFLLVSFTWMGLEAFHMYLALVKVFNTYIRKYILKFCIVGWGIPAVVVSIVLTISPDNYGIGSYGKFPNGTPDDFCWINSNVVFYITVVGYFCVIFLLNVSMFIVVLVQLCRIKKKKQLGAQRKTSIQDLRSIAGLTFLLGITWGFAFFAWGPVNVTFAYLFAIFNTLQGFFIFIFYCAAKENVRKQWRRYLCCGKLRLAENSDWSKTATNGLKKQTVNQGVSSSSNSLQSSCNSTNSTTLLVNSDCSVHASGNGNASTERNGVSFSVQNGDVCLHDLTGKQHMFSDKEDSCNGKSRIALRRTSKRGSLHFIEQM
# Procedure: (§1) The binding capacities of ADGRG2 WT or its mutants for VPM-p15 were determined by BRET assay, which has been used in previous studies ([27], [28], [29]). We fused the N terminus of ADGRG2 with a Rluc fragment and coupled FITC to the C terminus of VPM-p15 to facilitate BRET measurement. We stimulated the HEK293 cells transfected with Rluc-ADGRG2-ΔGPS-β wildtype (WT) or mutants by increasing the concentration of FITC-conjugated VPM-p15, and their binding abilities were determined by fitting the data with the saturation curves.
# (§2) In the detection of binding capacities of ADGRG2 WT or its mutants for VPM-p15, HEK293 cells were transfected with Rluc-ADGRG2-ΔGPS-β or mutants. Transfected cells were stimulated by increasing the concentration of FITC-conjugated VPM-p15. Binding capacities were determined by BRET, EC50 values of ADGRG2 WT and its mutants for binding VPM-p15 were calculated by GraphPad, and data were normalized by EC50 of WT.
# [2] = target: T2, Rluc-ADGRG2-ΔGPS-β Y611A (Mus musculus, UniProt Q8CJ12, Y625A); conditions: mutant Y611A
# T2 construct: the entire ECD (including the entire GPS motif) was removed (ADGRG2-ΔGPS-β); expressed in transfected cells; host or cells: HEK293
# T2 sequence (Q8CJ12 618-1009 Y625A limits assumed): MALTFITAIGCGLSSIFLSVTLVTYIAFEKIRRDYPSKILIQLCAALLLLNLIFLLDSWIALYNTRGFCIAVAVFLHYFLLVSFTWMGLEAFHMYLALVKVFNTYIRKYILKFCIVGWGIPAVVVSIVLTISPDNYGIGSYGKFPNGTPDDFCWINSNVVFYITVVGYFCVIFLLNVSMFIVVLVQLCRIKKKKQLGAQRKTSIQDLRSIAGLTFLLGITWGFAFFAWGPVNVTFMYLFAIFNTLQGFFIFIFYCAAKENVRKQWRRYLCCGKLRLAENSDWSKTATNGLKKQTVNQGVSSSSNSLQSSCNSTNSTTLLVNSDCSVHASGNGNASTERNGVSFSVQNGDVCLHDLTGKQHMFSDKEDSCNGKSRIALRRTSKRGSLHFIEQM
# Procedure: as §1, §2
# [3] = target: T3, Rluc-ADGRG2-ΔGPS-β N759A (Mus musculus, UniProt Q8CJ12, N773A); conditions: mutant N759A
# T3 construct: the entire ECD (including the entire GPS motif) was removed (ADGRG2-ΔGPS-β); expressed in transfected cells; host or cells: HEK293
# T3 sequence (Q8CJ12 618-1009 N773A limits assumed): as the sequence (Q8CJ12 618-1009 Y625A limits assumed) above, with A8Y, N156A counted along it
# Procedure: as §1, §2
# [4] = target: T4, Rluc-ADGRG2-ΔGPS-β WT (Mus musculus, UniProt Q8CJ12); conditions: receptor WT
# T4 construct: the entire ECD (including the entire GPS motif) was removed (ADGRG2-ΔGPS-β); expressed in transfected cells; host or cells: HEK293
# T4 sequence (Q8CJ12 618-1009 limits assumed, stated change not applied): as the sequence (Q8CJ12 618-1009 Y625A limits assumed) above, with A8Y counted along it
# Procedure: as §1, §2
# [5] = target: T5, Rluc-ADGRG2-ΔGPS-β Y765A (Mus musculus, UniProt Q8CJ12, Y779A); conditions: mutant Y765A
# T5 construct: the entire ECD (including the entire GPS motif) was removed (ADGRG2-ΔGPS-β); expressed in transfected cells; host or cells: HEK293
# T5 sequence (Q8CJ12 618-1009 Y779A limits assumed): as the sequence (Q8CJ12 618-1009 Y625A limits assumed) above, with A8Y, Y162A counted along it
# Procedure: as §1, §2
# [6] = target: T6, Rluc-ADGRG2-ΔGPS-β I844A (Mus musculus, UniProt Q8CJ12, I858A); conditions: mutant I844A
# T6 construct: expressed in transfected cells; host or cells: HEK293
# T6 sequence (Q8CJ12 614-1009 I858A): as the sequence (Q8CJ12 614-1009 M853A) above, with A240M, I245A counted along it
# Procedure: as §1, §2
# [7] = target: T7, Rluc-ADGRG2-ΔGPS-β V774A (Mus musculus, UniProt Q8CJ12, V788A); conditions: mutant V774A
# T7 construct: expressed in transfected cells; host or cells: HEK293
# T7 sequence (Q8CJ12 614-1009 V788A): as the sequence (Q8CJ12 614-1009 M853A) above, with V175A, A240M counted along it
# Procedure: as §1, §2
# [8] = target: T8, Rluc-ADGRG2-ΔGPS-β I741A (Mus musculus, UniProt Q8CJ12, I755A); conditions: mutant I741A
# T8 construct: the entire ECD (including the entire GPS motif) was removed (ADGRG2-ΔGPS-β); expressed in transfected cells; host or cells: HEK293
# T8 sequence (Q8CJ12 618-1009 I755A limits assumed): as the sequence (Q8CJ12 618-1009 Y625A limits assumed) above, with A8Y, I138A counted along it
# Procedure: as §1, §2
# [9] = target: T9, Rluc-ADGRG2-ΔGPS-β N667A (Mus musculus, UniProt Q8CJ12, N681A); conditions: mutant N667A
# T9 construct: the entire ECD (including the entire GPS motif) was removed (ADGRG2-ΔGPS-β); expressed in transfected cells; host or cells: HEK293
# T9 sequence (Q8CJ12 618-1009 N681A limits assumed): as the sequence (Q8CJ12 618-1009 Y625A limits assumed) above, with A8Y, N64A counted along it
# Procedure: as §1, §2
# [10] = target: T10, Rluc-ADGRG2-ΔGPS-β C614A (Mus musculus, UniProt Q8CJ12, C628A); conditions: mutant C614A
# T10 construct: the entire ECD (including the entire GPS motif) was removed (ADGRG2-ΔGPS-β); expressed in transfected cells; host or cells: HEK293
# T10 sequence (Q8CJ12 618-1009 C628A limits assumed): as the sequence (Q8CJ12 618-1009 Y625A limits assumed) above, with A8Y, C11A counted along it
# Procedure: as §1, §2
# [11] = target: T11, Rluc-ADGRG2-ΔGPS-β L665A (Mus musculus, UniProt Q8CJ12, L679A); conditions: mutant L665A
# T11 construct: the entire ECD (including the entire GPS motif) was removed (ADGRG2-ΔGPS-β); expressed in transfected cells; host or cells: HEK293
# T11 sequence (Q8CJ12 618-1009 L679A limits assumed): as the sequence (Q8CJ12 618-1009 Y625A limits assumed) above, with A8Y, L62A counted along it
# Procedure: as §1, §2
# [12] = target: T12, Rluc-ADGRG2-ΔGPS-β Y666A (Mus musculus, UniProt Q8CJ12, Y680A); conditions: mutant Y666A
# T12 construct: the entire ECD (including the entire GPS motif) was removed (ADGRG2-ΔGPS-β); expressed in transfected cells; host or cells: HEK293
# T12 sequence (Q8CJ12 618-1009 Y680A limits assumed): as the sequence (Q8CJ12 618-1009 Y625A limits assumed) above, with A8Y, Y63A counted along it
# Procedure: as §1, §2
# [13] = target: T13, Rluc-ADGRG2-ΔGPS-β W662A (Mus musculus, UniProt Q8CJ12, W676A); conditions: mutant W662A
# T13 construct: the entire ECD (including the entire GPS motif) was removed (ADGRG2-ΔGPS-β); expressed in transfected cells; host or cells: HEK293
# T13 sequence (Q8CJ12 618-1009 W676A limits assumed): as the sequence (Q8CJ12 618-1009 Y625A limits assumed) above, with A8Y, W59A counted along it
# Procedure: as §1, §2
# [14] = target: T14, Rluc-ADGRG2-ΔGPS-β I663A (Mus musculus, UniProt Q8CJ12, I677A); conditions: mutant I663A
# T14 construct: the entire ECD (including the entire GPS motif) was removed (ADGRG2-ΔGPS-β); expressed in transfected cells; host or cells: HEK293
# T14 sequence (Q8CJ12 618-1009 I677A limits assumed): as the sequence (Q8CJ12 618-1009 Y625A limits assumed) above, with A8Y, I60A counted along it
# Procedure: as §1, §2
# [15] = target: T15, Rluc-ADGRG2-ΔGPS-β L683A (Mus musculus, UniProt Q8CJ12, L697A); conditions: mutant L683A
# T15 construct: the entire ECD (including the entire GPS motif) was removed (ADGRG2-ΔGPS-β); expressed in transfected cells; host or cells: HEK293
# T15 sequence (Q8CJ12 618-1009 L697A limits assumed): as the sequence (Q8CJ12 618-1009 Y625A limits assumed) above, with A8Y, L80A counted along it
# Procedure: as §1, §2
# [16] = target: T16, Rluc-ADGRG2-ΔGPS-β V834A (Mus musculus, UniProt Q8CJ12, V848A); conditions: mutant V834A
# T16 construct: expressed in transfected cells; host or cells: HEK293
# T16 sequence (Q8CJ12 614-1009 V848A): as the sequence (Q8CJ12 614-1009 M853A) above, with V235A, A240M counted along it
# Procedure: as §1, §2
# [17] = target: T17, Rluc-ADGRG2-ΔGPS-β F838A (Mus musculus, UniProt Q8CJ12, F852A); conditions: mutant F838A
# T17 construct: expressed in transfected cells; host or cells: HEK293
# T17 sequence (Q8CJ12 614-1009 F852A): as the sequence (Q8CJ12 614-1009 M853A) above, with F239A, A240M counted along it
# Procedure: as §1, §2
# [18] = target: T18, Rluc-ADGRG2-ΔGPS-β F845A (Mus musculus, UniProt Q8CJ12, F859A); conditions: mutant F845A
# T18 construct: expressed in transfected cells; host or cells: HEK293
# T18 sequence (Q8CJ12 614-1009 F859A): as the sequence (Q8CJ12 614-1009 M853A) above, with A240M, F246A counted along it
# Procedure: as §1, §2
# [19] = Kd(mutated ADGRG2-ΔGPS-β)/Kd(WT)
structure (smiles),measurement,setting,value
CC[C@H](C)[C@H](NC(=O)CNC(=O)[C@H](Cc1ccc(C)cc1)NC(=O)[C@H](CO)NC(=O)[C@@H](N)C(C)C)C(=O)N[C@@H](CC(C)C)C(=O)N[C@@H](CC(C)C)C(=O)N[C@@H](CC(=O)O)C(=O)N[C@@H](CC(C)C)C(=O)N[C@@H](CO)C(=O)N[C@@H](CCCNC(=N)N)C(=O)N[C@H](C(=O)N[C@@H](CO)C(=O)N[C@@H](CC(C)C)C(=O)N1CCC[C@H]1C(=O)N[C@@H](CCCCNC(=S)Nc1ccc2c(c1)C(=O)OC21c2ccc(O)cc2Oc2cc(O)ccc21)C(=O)O)[C@@H](C)O [FITC-VPM-p15] (H-VS[Phe(4-Me)]GILLDLSRTSLPK(FITC)-OH; N-terminus and C-terminus assumed),Fmut,[1]; [19],0.957
same,Bmax,[1]; binding Bmax (BRET),0.764±0.008
same,Fmut,[2]; [19],0.761
same,Bmax,[2]; binding Bmax (BRET),0.7912±0.020
same,Fmut,[3]; [19],1.655
same,Bmax,[3]; binding Bmax (BRET),0.713±0.011
same,Fmut,[4]; [19],1.000
same,Bmax,[4]; binding Bmax (BRET),0.809±0.015
same,Fmut,[5]; [19],0.967
same,Bmax,[5]; binding Bmax (BRET),0.796±0.013
same,Fmut,[6]; [19],1.640
same,Bmax,[6]; binding Bmax (BRET),0.729±0.093
same,Fmut,[7]; [19],1.149
same,Bmax,[7]; binding Bmax (BRET),0.820±0.032
same,Fmut,[8]; [19],0.715
same,Bmax,[8]; binding Bmax (BRET),0.775±0.093
same,Fmut,[9]; [19],0.975
same,Bmax,[9]; binding Bmax (BRET),0.803±0.028
same,Fmut,[10]; [19],1.382
same,Bmax,[10]; binding Bmax (BRET),0.7934±0.0241
same,Fmut,[11]; [19],0.850
same,Bmax,[11]; binding Bmax (BRET),0.799±0.012
same,Fmut,[12]; [19],0.895
same,Bmax,[12]; binding Bmax (BRET),0.809±0.029
same,Fmut,[13]; [19],1.128
same,Bmax,[13]; binding Bmax (BRET),0.808±0.047
same,Fmut,[14]; [19],0.825
same,Bmax,[14]; binding Bmax (BRET),0.814±0.043
same,Fmut,[15]; [19],1.240
same,Bmax,[15]; binding Bmax (BRET),0.7887±0.022
same,Fmut,[16]; [19],1.196
same,Bmax,[16]; binding Bmax (BRET),0.789±0.016
same,Fmut,[17]; [19],0.819
same,Bmax,[17]; binding Bmax (BRET),0.793±0.022
same,Fmut,[18]; [19],1.452
same,Bmax,[18]; binding Bmax (BRET),0.749±0.071
